The text below walks through data of patent US11312693B2, “Protease inhibitors” (MEDIVIR AB, priority 2008, dated 2022).

Data set [1] in a line: In vivo mouse PK, oral administration (FIG. 1). On the set-up: species or system male C57BI mice. The conditions noted are these: 60 μmol/kg in 1% Methocel A4C, versus Example 2 of WO2008 007107. An excerpt: FIG. 1 depicts plasma concentration against time for male C57BI mice orally administered a compound of the invention or a compound of the prior art.
Various embodiments of the invention will now be described by way of illustration only with reference to the following Examples and FIG. 1 which depicts plasma concentration against time for male C57BI mice orally administered a compound of the invention or a compound of the prior art.

Data set [2] is described as follows: Metabolic stability in whole blood. It counts as in vitro ADME. The note with it: from CLint. The protocol:
Compounds of the invention and the indicated comparative examples were tested for metabolic stability in a cytosol assay in which the compounds were incubated with commercially available human hepatic cytosol fractions and the disappearance of the compound monitored by HPLC or LC/MS. Pooled human liver cytosol fractions are less likely to represent outlier individuals than blood from a single individual and can be stored frozen, unlike whole blood. The cytosol assay thus provides a consistent assay testbed as a guide to the stability of a compound in the in vivo environment, such as when exposed to whole blood.
In short, test compounds (2 μM) are incubated in pooled human liver cytosol (Xenotech LLC Lenexa US, 1 mg/mL protein in 0.1M phosphate buffer, pH 7.4) at 37° centigrade over a one hour period. The incubations are initiated by the addition of 1 mM NADPH co-factor. Timed sub-samples were taken at 0, 20, 40 and 60 minutes and “crash precipitated” by the addition of 3 volumes of ice-cold acetonitrile. The samples were centrifuged at reduced temperature and the supernatants were separated and analyzed by LC-MS-MS.
Alternatively, an analogous stability assay is carried out in human or monkey whole blood and/or commercially available liver microsomes, such as XEN 025.

Regarding `C#C[C@@H]1CN(C(=O)[C@H](CC(C)C)NC(=O)c2ccc(-c3nc(N4CCN(C)CC4)sc3F)cc2)[C@@H]2C(=O)CO[C@H]12` [Example 2, N-[1-6-(ethynyl-3-oxo-hexahydro-furo[3,2-b]pyrrole-4-carbonyl)-3-methyl-butyl]-4-[5-fluoro-2-(4-methyl-piperazin-1-yl)thiazol-4-yl]-benzamide], the “in vivo exposure (whether measured as Cmax or AUC)” value in data set [1] is given as “very much greater”. Turning to `CC(C)C[C@H](NC(=O)c1ccc(-c2csc(N3CCN(C)CC3)n2)cc1)C(=O)N1C[C@@H](C)[C@H]2OCC(=O)[C@H]21` [comparative example], in data set [2], the “estimated / calculated whole blood half life” value is reported as “little over an hour”.
